Patent publication US20060194805A1, “Capsaicin receptor agonists” (Neurogen Corporation, priority 2003, published 2006)
pEC50: −log10 of the molar value.

Target: T1, human capsaicin receptor (Homo sapiens, UniProt Q8NER1)
T1 construct: transfected with the pBK-CMV expression construct encoding the full length human capsaicin receptor; expressed in transfected cells
Test: Calcium mobilization assay (determination of agonist activity), Example 7
Assay type: cell-based
Conditions: for pEC50: HEK293 cells expressing human capsaicin receptor, FLUO-3 calcium fluorescence, read-out: EC50, capsaicin receptor agonist activity as described in Example 7
Source text: A cDNA encoding full length human capsaicin receptor (SEQ ID NO:1, 2 or 3 of U.S. Pat. No. 6,482,611) was subcloned in the plasmid pBK-CMV (Stratagene, La Jolla, Calif.) for recombinant expression in mammalian cells.
Human embryonic kidney (HEK293) cells were transfected with the pBK-CMV expression construct encoding the full length human capsaicin receptor using standard methods. […] Independent clones were isolated from this pool by limiting dilution to obtain clonal stable cell lines for use in subsequent experiments.
The culture medium is emptied from the 96 well plates and FLUO-3 AM calcium sensitive dye (Molecular Probes, Eugene, Oreg.) is added to each well (dye solution: 1 mg FLUO-3 AM, 440 μL DMSO and 440 μl 20% pluronic acid in DMSO, diluted 1:250 in Krebs-Ringer HEPES (KRH) buffer (25 mM HEPES, 5 mM KCl, 0.96 mM NaH2PO4, 1 mM MgSO4, 2 mM CaCl2, 5 mM glucose, 1 mM probenecid, pH 7.4), 50 μl diluted solution per well). Plates are covered with aluminum foil and incubated at 37° C. for 1-2 hours in an environment containing 5% CO2.
To measure the ability of a test compound to agonize or antagonize a calcium mobilization response in cells expressing capsaicin receptors to capsaicin or other vanilloid agonist, the EC50 of the agonist capsaicin is first determined. An additional 20 μl of KRH buffer and 1 μl DMSO is added to each well of cells, prepared as described above. 100 μl capsaicin in KRH buffer is automatically transferred by the FLIPR instrument to each well. Capsaicin-induced calcium mobilization is monitored using either FLUOROSKAN ASCENT (Labsystems; Franklin, Mass.) or FLIPR (fluorometric imaging plate reader system; Molecular Devices, Sunnyvale, Calif.) instruments. Data obtained between 30 and 60 seconds after agonist application are used to generate an 8-point concentration response curve, with final capsaicin concentrations of 1 nM to 3 μM. […] software (Synergy Software, Reading, Pa.) is used to fit the data to the equation: y=a*(1/(1+(b/x)c)) to determine the 50% excitatory concentration (EC50) for the response. In this equation, y is the maximum fluorescence signal, x is the concentration of the agonist or antagonist (in this case, capsaicin), a is the Emax, b corresponds to the EC50 value and c is the Hill coefficient. Determination of Agonist Activity
Test compounds are dissolved in DMSO, diluted in KRH buffer, and immediately added to cells prepared as described above. […] The final concentration of test compounds in the assay wells is between 0.1 nM and 5 μM.
The ability of a test compound to act as an agonist of the capsaicin receptor is determined by measuring the fluorescence response of cells expressing capsaicin receptors elicited by the compound as function of compound concentration.

T1 sequence (Q8NER1 whole entry): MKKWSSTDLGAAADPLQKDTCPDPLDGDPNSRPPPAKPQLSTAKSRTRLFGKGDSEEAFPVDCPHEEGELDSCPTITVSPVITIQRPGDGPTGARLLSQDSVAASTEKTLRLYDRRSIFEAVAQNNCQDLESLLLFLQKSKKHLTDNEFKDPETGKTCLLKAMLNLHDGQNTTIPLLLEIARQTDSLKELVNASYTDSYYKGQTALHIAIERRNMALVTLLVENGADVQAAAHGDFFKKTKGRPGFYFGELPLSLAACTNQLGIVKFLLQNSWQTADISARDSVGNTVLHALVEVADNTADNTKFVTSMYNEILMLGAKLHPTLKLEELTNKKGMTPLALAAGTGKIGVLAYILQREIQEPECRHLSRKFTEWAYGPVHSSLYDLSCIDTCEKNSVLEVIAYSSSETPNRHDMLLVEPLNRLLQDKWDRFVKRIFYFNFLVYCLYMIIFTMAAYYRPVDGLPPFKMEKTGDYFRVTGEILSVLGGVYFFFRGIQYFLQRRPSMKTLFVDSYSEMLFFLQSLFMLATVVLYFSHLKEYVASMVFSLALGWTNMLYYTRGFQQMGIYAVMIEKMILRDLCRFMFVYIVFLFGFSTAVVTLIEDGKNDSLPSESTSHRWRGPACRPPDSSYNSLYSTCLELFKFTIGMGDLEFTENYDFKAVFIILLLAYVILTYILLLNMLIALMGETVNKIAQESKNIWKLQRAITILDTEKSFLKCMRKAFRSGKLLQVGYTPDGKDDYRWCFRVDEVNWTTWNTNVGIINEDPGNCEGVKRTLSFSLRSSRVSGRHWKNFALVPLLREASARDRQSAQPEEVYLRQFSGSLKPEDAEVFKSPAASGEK

SMILES	pEC50	EC90 (capsaicin positive control, calcium mobilization, read-out: approximate EC90 concentration)
FC(F)(F)c1ccc(Nc2ncnc3cc(Br)ccc23)nc1 [Compound 1, (7-bromo-quinazolin-4-yl)-(5-trifluoromethyl-pyridin-2-yl)-amine]	> 6.00	
C[C@@H]1CN(Cc2nc(Nc3ccc(C(C)(C)C)cc3)c3ccc(C(F)(F)F)cc3n2)C[C@H](C)O1 [Compound 3, (4-t-butyl-phenyl)-[2-(cis-2,6-dimethyl-morpholin-4-ylmethyl)-7-trifluoromethyl-quinazolin-4-yl)-amine]	> 6.00	
COc1cc(CNC(=O)CCCC/C=C/C(C)C)ccc1O [capsaicin]		~100 nM
CC(C)(C)c1cc(Nc2ncnc3cc(Br)cnc23)no1 [Compound 2]	> 6.00	

Further lines, results first:

pEC50	EC90 (capsaicin positive control, calcium mobilization, read-out: approximate EC90 concentration)	SMILES
> 6.00		CCCn1c(CN(Cc2ccc(Cl)cc2Cl)Cc2c(OCC)ccc3ccccc23)nc2cc(F)ccc21 [Compound 55]
> 6.00		O=C(NCc1ccccc1)c1cc(-c2cccc(Cl)c2)nc2ccncc12 [Compound 65, 2-(3-chloro-phenyl)-[1, 6]-naphthyridine-4-carboxylic acid benzylamide]
